This test concerns MV-4-11 cells. Briefly: Gene expression microarray analysis (Affymetrix PrimeView) and GSEA. The format is cell-based, human. On the set-up: RFU PODN (11730768_x_at) / Fold change /veh PODN (11730768_x_at) / RFU LINC00158 (11744669_a_at) / Fold change /veh LINC00158 (11744669_a_at) / RFU DUSP10 (11751237_a_at) / Fold change /veh DUSP10 (11751237_a_at) / RFU ID3 (11757404_x_at) / Fold change /veh ID3 (11757404_x_at) / RFU PLEKHG5 (11737974_s_at) / Fold change /veh PLEKHG5 (11737974_s_at) / RFU LRRC4B (11730491_at) / Fold change /veh LRRC4B (11730491_at) / RFU GIMAP4 (11747438_a_at) / Fold change /veh GIMAP4 (11747438_a_at) / RFU KRT8 (11758183_x_at) / Fold change /veh KRT8 (11758183_x_at) / RFU CNN1 (11734310_a_at) / Fold change /veh CNN1 (11734310_a_at) / RFU VPS37D (11726825_at) / Fold change /veh VPS37D (11726825_at) / RFU C10orf10 (11716522_x_at) / Fold change /veh C10orf10 (11716522_x_at) / RFU KIR2DL2 /// KIR2DL4 /// KIR2DL5A /// KIR2DL5B /// KIR2DS1 /// KIR2DS2 /// KIR2DS3 /// KIR2DS4 /// KIR3DL3 /// KIR3DL3 /// KIR3DS1 (11738374_at) / Fold change /veh KIR2DL2 /// KIR2DL4 /// KIR2DL5A /// KIR2DL5B /// KIR2DS1 /// KIR2DS2 /// KIR2DS3 /// KIR2DS4 /// KIR3DL3 /// KIR3DL3 /// KIR3DS1 (11738374_at) / RFU C1QL1 (11718748_at) / Fold change /veh C1QL1 (11718748_at) / RFU TMPRSS4 (11747572_a_at) / Fold change /veh TMPRSS4 (11747572_a_at) / RFU HAMP (11756126_x_at) / Fold change /veh HAMP (11756126_x_at) / RFU RNFT2 (11725882_a_at) / Fold change /veh RNFT2 (11725882_a_at) / RFU NR4A2 (11747474_a_at) / Fold change /veh NR4A2 (11747474_a_at) / RFU ABCC12 (11746883_a_at) / Fold change /veh ABCC12 (11746883_a_at) / RFU TMEM136 (11760407_x_at) / Fold change /veh TMEM136 (11760407_x_at) / RFU CLDN22 /// WWC2 (11732394_at) / Fold change /veh CLDN22 /// WWC2 (11732394_at) / RFU HLA-DPB1 (11760878_x_at) / Fold change /veh HLA-DPB1 (11760878_x_at) / RFU SPINT1 (11716480_a_at) / Fold change /veh SPINT1 (11716480_a_at) / RFU GAP43 (11754022_s_at) / Fold change /veh GAP43 (11754022_s_at) / RFU A4GNT (11735810_at) / Fold change /veh A4GNT (11735810_at) / RFU PRB3 (11715151_x_at) / Fold change /veh PRB3 (11715151_x_at) / RFU TUBB4B (11761932_at) / Fold change /veh TUBB4B (11761932_at) / RFU CAPN14 (11732068_a_at) / Fold change /veh CAPN14 (11732068_a_at) / RFU TMCC2 (11721928_a_at) / Fold change /veh TMCC2 (11721928_a_at) / RFU IRGQ (11745062_a_at) / Fold change /veh IRGQ (11745062_a_at) / RFU FAM174B (11720279_a_at) / Fold change /veh FAM174B (11720279_a_at) / RFU TMPRSS4 (11748680_a_at) / Fold change /veh TMPRSS4 (11748680_a_at) / RFU FAM212B (11763350_a_at) / Fold change /veh FAM212B (11763350_a_at) / RFU PLEKHG5 (11743358_a_at) / Fold change /veh PLEKHG5 (11743358_a_at) / RFU ZSCAN30 (11745921_a_at) / Fold change /veh ZSCAN30 (11745921_a_at) / RFU CMKLR1 (11741424_a_at) / Fold change /veh CMKLR1 (11741424_a_at) / RFU LOC101060620 /// MAPK8IP1 (11723275_at) / Fold change /veh LOC101060620 /// MAPK8IP1 (11723275_at) / RFU SPTSSB (11747773_x_at) / Fold change /veh SPTSSB (11747773_x_at) / RFU PRSS12 (11739890_at) / Fold change /veh PRSS12 (11739890_at) / RFU BIN1 (11741810_x_at) / Fold change /veh BIN1 (11741810_x_at) / RFU WNT11 (11732464_a_at) / Fold change /veh WNT11 (11732464_a_at) / RFU C10orf10 (11716521_a_at) / Fold change /veh C10orf10 (11716521_a_at) / RFU C5orf56 (11738089_at) / Fold change /veh C5orf56 (11738089_at) / RFU CYB561 (11721691_x_at) / Fold change /veh CYB561 (11721691_x_at) / RFU ANKRD19P (11752326_a_at) / Fold change /veh ANKRD19P (11752326_a_at) / RFU OR2T12 /// OR2T33 /// OR2T8 (11738714_s_at) / Fold change /veh OR2T12 /// OR2T33 /// OR2T8 (11738714_s_at) / RFU VCAN (11748164_a_at) / Fold change /veh VCAN (11748164_a_at) / RFU JSRP1 (11732532_at) / Fold change /veh JSRP1 (11732532_at) / RFU KRTAP10-11 (11738290_x_at) / Fold change /veh KRTAP10-11 (11738290_x_at) / RFU MYO3A (11730013_a_at) / Fold change /veh MYO3A (11730013_a_at) / RFU EBF3 (11725865_a_at) / Fold change /veh EBF3 (11725865_a_at) / RFU CAMK2N1 (11719241_x_at) / Fold change /veh CAMK2N1 (11719241_x_at) / RFU C5orf56 (11738088_a_at) / Fold change /veh C5orf56 (11738088_a_at) / RFU OLFML3 (11715873_a_at) / Fold change /veh OLFML3 (11715873_a_at) / RFU LOC100653217 /// NTM (11731650_a_at) / Fold change /veh LOC100653217 /// NTM (11731650_a_at) / RFU MAPK11 (11762145_a_at) / Fold change /veh MAPK11 (11762145_a_at) / RFU FIZ1 (11724087_x_at) / Fold change /veh FIZ1 (11724087_x_at) / RFU OASL (11726364_x_at) / Fold change /veh OASL (11726364_x_at) / RFU SOX15 (11748057_x_at) / Fold change /veh SOX15 (11748057_x_at) / RFU CD79A (11719716_a_at) / Fold change /veh CD79A (11719716_a_at) / RFU HIST1H1D (11736915_at) / Fold change /veh HIST1H1D (11736915_at) / RFU CASKIN2 (11723855_a_at) / Fold change /veh CASKIN2 (11723855_a_at) / RFU LOC730098 (11760151_x_at) / Fold change /veh LOC730098 (11760151_x_at) / RFU OR4N2 (11742367_at) / Fold change /veh OR4N2 (11742367_at) / RFU PRRT2 (11749266_a_at) / Fold change /veh PRRT2 (11749266_a_at) / RFU SNX32 (11753110_a_at) / Fold change /veh SNX32 (11753110_a_at) / RFU CDHR5 (11726645_a_at) / Fold change /veh CDHR5 (11726645_a_at) / RFU RCAN1 (11760418_a_at) / Fold change /veh RCAN1 (11760418_a_at) / RFU FAM167A (11723789_a_at) / Fold change /veh FAM167A (11723789_a_at) / RFU FAM26E (11764081_at) / Fold change /veh FAM26E (11764081_at) / RFU ISYNA1 (11749810_s_at) / Fold change /veh ISYNA1 (11749810_s_at) / RFU ACY1 (11761880_at) / Fold change /veh ACY1 (11761880_at) / RFU 11764098_at / Fold change /veh 11764098_at / RFU SAMD14 (11745864_x_at) / Fold change /veh SAMD14 (11745864_x_at) / RFU NPB (11741838_a_at) / Fold change /veh NPB (11741838_a_at) / RFU TMPRSS6 (11731388_a_at) / Fold change /veh TMPRSS6 (11731388_a_at) / RFU KRTAP10-2 (11738614_at) / Fold change /veh KRTAP10-2 (11738614_at) / RFU ARHGAP8 /// PRR5-ARHGAP8 (11727945_x_at) / Fold change /veh ARHGAP8 /// PRR5-ARHGAP8 (11727945_x_at) / RFU KRTAP5-7 /// NADSYN1 (11734609_at) / Fold change /veh KRTAP5-7 /// NADSYN1 (11734609_at) / RFU RASL12 (11751679_a_at) / Fold change /veh RASL12 (11751679_a_at) / RFU CDKN2B (11736163_a_at) / Fold change /veh CDKN2B (11736163_a_at) / RFU PRF1 (11729649_at) / Fold change /veh PRF1 (11729649_at) / RFU, ZNF638 /// ZNF638-IT1 / Fold change vs veh, ZNF638 /// ZNF638-IT1 / RFU, PANK3 / Fold change vs veh, PANK3 / RFU, SH3YL1 / Fold change vs veh, SH3YL1 / RFU, ZEB2 / Fold change vs veh, ZEB2 / RFU, NRIP1 / Fold change vs veh, NRIP1 / RFU, PTTG1IP / Fold change vs veh, PTTG1IP / RFU, CAPN2 / Fold change vs veh, CAPN2 / RFU, MED14 / Fold change vs veh, MED14 / RFU, SNORA58 / Fold change vs veh, SNORA58 / RFU, C1orf63 / Fold change vs veh, C1orf63 / RFU, LRRFIP1 / Fold change vs veh, LRRFIP1 / RFU, NDUFAF7 / Fold change vs veh, NDUFAF7 / RFU, SLC12A2 / Fold change vs veh, SLC12A2 / RFU, IBTK / Fold change vs veh, IBTK / RFU, ESF1 / Fold change vs veh, ESF1 / Fold change vs veh, TMEM50B / RFU, TAOK1 / Fold change vs veh, TAOK1 / RFU, ACBD3 / Fold change vs veh, ACBD3 / RFU, TMA16 / Fold change vs veh, TMA16 / RFU, RWDD3 / Fold change vs veh, RWDD3 / RFU, BCAT1 / Fold change vs veh, BCAT1 / RFU, EDEM3 / Fold change vs veh, EDEM3 / RFU, TMEM33 / Fold change vs veh, TMEM33 / RFU, WDR75 / Fold change vs veh, WDR75 / RFU, AHCTF1 / Fold change vs veh, AHCTF1 / RFU, TFRC / Fold change vs veh, TFRC / RFU, ZDHHC17 / Fold change vs veh, ZDHHC17 / RFU, NOM1 / Fold change vs veh, NOM1 / RFU, ARL8B / Fold change vs veh, ARL8B / RFU, ZBTB11 / Fold change vs veh, ZBTB11 / RFU, TAMM41 / Fold change vs veh, TAMM41 / RFU, KIAA1704 /// LOC100996395 / Fold change vs veh, KIAA1704 /// LOC100996395 / RFU, ING1 / Fold change vs veh, ING1 / RFU, TRMT61B / Fold change vs veh, TRMT61B / RFU, FUBP3 / Fold change vs veh, FUBP3 / RFU, TP53 / Fold change vs veh, TP53 / RFU, TNKS2 / Fold change vs veh, TNKS2 / RFU, ZFP14 / Fold change vs veh, ZFP14 / RFU, ACTR2 / Fold change vs veh, ACTR2 / RFU, PPP3R1 / Fold change vs veh, PPP3R1 / RFU, PIK3R1 / Fold change vs veh, PIK3R1 / RFU, HNRNPA1 / Fold change vs veh, HNRNPA1 / RFU, RNF170 / Fold change vs veh, RNF170 / RFU, ZNF28 / Fold change vs veh, ZNF28 / RFU, RNGTT / Fold change vs veh, RNGTT / RFU, OGT / Fold change vs veh, OGT / RFU, BRD1 / Fold change vs veh, BRD1 / RFU, MARS / Fold change vs veh, MARS / RFU, ZNF655 / Fold change vs veh, ZNF655 / RFU, FAHD1 / Fold change vs veh, FAHD1 / RFU, BDP1 / Fold change vs veh, BDP1 / RFU, LRRCC1 / Fold change vs veh, LRRCC1 / RFU, ARID1A / Fold change vs veh, ARID1A / RFU, ZNF146 / Fold change vs veh, ZNF146 / RFU, ZNF330 / Fold change vs veh, ZNF330 / RFU, GPN3 / Fold change vs veh, GPN3 / RFU, C9orf123 / Fold change vs veh, C9orf123 / RFU, N4BP2L2 / Fold change vs veh, N4BP2L2 / RFU, ARFIP1 / Fold change vs veh, ARFIP1 / RFU, FAM179B / Fold change vs veh, FAM179B / RFU, BCL10 / Fold change vs veh, BCL10 / RFU, UHRF1BP1L / Fold change vs veh, UHRF1BP1L / RFU, BET1 / Fold change vs veh, BET1 / RFU, CNOT2 / Fold change vs veh, CNOT2 / RFU, ZNF268 / Fold change vs veh, ZNF268 / Fold change vs veh, ZNF507 / RFU, DGCR2 / Fold change vs veh, DGCR2 / RFU, WDSUB1 / Fold change vs veh, WDSUB1 / Fold change vs veh, HSP90B1 /// MIR3652 / RFU, ADSS / Fold change vs veh, ADSS / RFU, GK / Fold change vs veh, GK / RFU, ZNF148 / Fold change vs veh, ZNF148 / RFU, TAF9 / Fold change vs veh, TAF9 / RFU, SLC1A5 / Fold change vs veh, SLC1A5 / RFU, SLMO2 / Fold change vs veh, SLMO2 / RFU, ABCC4 / Fold change vs veh, ABCC4 / RFU, LOC101060439 /// RAP1B / Fold change vs veh, LOC101060439 /// RAP1B / RFU, RFX7 / Fold change vs veh, RFX7 / RFU, GTPBP10 / Fold change vs veh, GTPBP10 / RFU, CNEP1R1 / Fold change vs veh, CNEP1R1 / RFU, BIVM-ERCC5 /// ERCC5 / Fold change vs veh, BIVM-ERCC5 /// ERCC5 / RFU, ILF3 / Fold change vs veh, ILF3 / RFU 11762660_at / Fold change /veh 11762660_at / RFU VCAN (11757783_s_at) / Fold change /veh VCAN (11757783_s_at) / RFU DDX43 (11728927_at) / Fold change /veh DDX43 (11728927_at) / RFU KRT8 (11758188_x_at) / Fold change /veh KRT8 (11758188_x_at) / RFU NKD1 (11759106_at) / Fold change /veh NKD1 (11759106_at) / RFU SRD5A1 (11742802_a_at) / Fold change /veh SRD5A1 (11742802_a_at) / RFU TPSAB1 /// TPSB2 (11721975_s_at) / Fold change /veh TPSAB1 /// TPSB2 (11721975_s_at) / RFU GSTM3 (11746129_a_at) / Fold change /veh GSTM3 (11746129_a_at) / RFU IL23R (11737362_x_at) / Fold change /veh IL23R (11737362_x_at) / RFU TMEM51 (11727254_a_at) / Fold change /veh TMEM51 (11727254_a_at) / RFU PIWIL2 (11732686_x_at) / Fold change /veh PIWIL2 (11732686_x_at) / RFU ORM1 (11744905_x_at) / Fold change /veh ORM1 (11744905_x_at) / RFU CCDC152 (11743942_at) / Fold change /veh CCDC152 (11743942_at) / RFU ECM1 (11717891_a_at) / Fold change /veh ECM1 (11717891_a_at) / RFU IL23R (11748794_a_at) / Fold change /veh IL23R (11748794_a_at) / RFU TNFAIP8L3 (11732012_x_at) / Fold change /veh TNFAIP8L3 (11732012_x_at) / RFU MBOAT4 (11741988_at) / Fold change /veh MBOAT4 (11741988_at) / RFU 11764193_at / Fold change /veh 11764193_at / RFU TMEM53 (11763286_at) / Fold change /veh TMEM53 (11763286_at) / RFU MAGEB2 (11727129_at) / Fold change /veh MAGEB2 (11727129_at) / RFU TMEM200A (11744735_a_at) / Fold change /veh TMEM200A (11744735_a_at) / RFU CCDC152 (11751479_a_at) / Fold change /veh CCDC152 (11751479_a_at) / RFU FAM211A (11726209_a_at) / Fold change /veh FAM211A (11726209_a_at) / RFU RGS16 (11746705_a_at) / Fold change /veh RGS16 (11746705_a_at) / RFU VCAN (11755009_s_at) / Fold change /veh VCAN (11755009_s_at) / RFU RHOB (11743442_s_at) / Fold change /veh RHOB (11743442_s_at) / RFU RGS16 (11720943_a_at) / Fold change /veh RGS16 (11720943_a_at) / RFU RGS16 (11720944_at) / Fold change /veh RGS16 (11720944_at) / RFU, VPS4B / Fold change vs veh, VPS4B / RFU, CREB1 / Fold change vs veh, CREB1 / RFU, DNAJC13 / Fold change vs veh, DNAJC13 / RFU, GNAQ / Fold change vs veh, GNAQ / RFU, CDK5R1 / Fold change vs veh, CDK5R1 / RFU, ZRANB3 / Fold change vs veh, ZRANB3 / RFU, CUL4A / Fold change vs veh, CUL4A / RFU, CCNY / Fold change vs veh, CCNY / RFU, UFL1 / Fold change vs veh, UFL1 / RFU, COG3 / Fold change vs veh, COG3 / RFU, DIAPH2 / Fold change vs veh, DIAPH2 / RFU, SKA2 / Fold change vs veh, SKA2 / RFU, AFF3 / Fold change vs veh, AFF3 / RFU, LMF1 / Fold change vs veh, LMF1 / RFU, IPO11 / Fold change vs veh, IPO11 / RFU, DFFB / Fold change vs veh, DFFB / RFU, FOXP1 / Fold change vs veh, FOXP1 / RFU, CARD8 / Fold change vs veh, CARD8 / RFU, STRN3 / Fold change vs veh, STRN3 / RFU, ADK / Fold change vs veh, ADK / RFU, RASSF2 / Fold change vs veh, RASSF2 / RFU, WIPF1 / Fold change vs veh, WIPF1 / RFU, LARP1B / Fold change vs veh, LARP1B / RFU, RASA1 / Fold change vs veh, RASA1 / RFU, RB1 / Fold change vs veh, RB1 / RFU, PPFIA1 / Fold change vs veh, PPFIA1 / RFU, MAT2A / Fold change vs veh, MAT2A / RFU, CCT5 / Fold change vs veh, CCT5 / RFU, WDR92 / Fold change vs veh, WDR92 / RFU, CUX1 / Fold change vs veh, CUX1 / RFU, TTC7A / Fold change vs veh, TTC7A / RFU, TMEM135 / Fold change vs veh, TMEM135 / RFU, DEPTOR / Fold change vs veh, DEPTOR / RFU, CPM / Fold change vs veh, CPM / RFU, DNAJB6 / Fold change vs veh, DNAJB6 / RFU, CACNA2D3 / Fold change vs veh, CACNA2D3 / RFU, DTX4 / Fold change vs veh, DTX4 / RFU, TFCP2 / Fold change vs veh, TFCP2 / RFU, GMCL1 /// GMCL1P1 / Fold change vs veh, GMCL1 /// GMCL1P1 / RFU, AEBP2 / Fold change vs veh, AEBP2 / RFU, SNHG1 /// SNORD22 /// SNORD25 /// SNORD26 /// SNORD27 /// SNORD28 /// SNORD29 /// SNORD31 / Fold change vs veh, SNHG1 /// SNORD22 /// SNORD25 /// SNORD26 /// SNORD27 /// SNORD28 /// SNORD29 /// SNORD31 / Fold change (Aza/veh), C12orf56 (ProbeSet 11735607_a_at) / Fold change (ACY-1035/veh), C12orf56 (ProbeSet 11735607_a_at) / Fold change (Aza/veh), FGFR1OP (ProbeSet 11751329_s_at) / Fold change (ACY-1035/veh), FGFR1OP (ProbeSet 11751329_s_at) / Fold change (Aza/veh), VPS36 (ProbeSet 11739960_a_at) / Fold change (ACY-1035/veh), VPS36 (ProbeSet 11739960_a_at) / RFU SYPL1 (11715823_x_at) / Fold change /veh SYPL1 (11715823_x_at) / RFU IGFBP7 (11715501_s_at) / Fold change /veh IGFBP7 (11715501_s_at) / RFU REEP3 (11722064_at) / Fold change /veh REEP3 (11722064_at) / RFU IGLL1 (11728026_x_at) / Fold change /veh IGLL1 (11728026_x_at): dose or concentration left out as unconfirmed. To be noted: MV-4-11 cells, 48 hours.

The record followed here is PMC5218480 (PLoS ONE, 2017).

As to `Nc1ccc(-c2cccs2)cc1NC(=O)c1ccc2c(c1)cc(C1CC1)n2CCN1CCOCC1` [ACY-1035], the “RFU NKD1 (11759106_at)” value is recorded as 19.24 RFU.
